Test systems include SW-620 colon; SR leukemia; TK-10 renal; OVCAR-5 ovarian; SF-295 CNS; A549 NSCLC; HL-60(TB) leukemia; SK-MEL-28 melanoma; 786-0 renal; HOP-92 NSCLC; KM12 colon.
What all share (experiment): NCI anticancer screen, dose series, 48 h

SMILES strings stand for the structures.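 Exposure lasted 48 hours, with cells grown in 96-well plates and compounds tested at five concentrations. GI50 = concentration required for 50% inhibition of growth. TGI: total growth inhibition.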 Some results are limits rather than exact numbers.

For `COc1cc(O)c2c(=O)c(OC)c(-c3ccc(OC)c(OC)c3)oc2c1.[Zn+2]`, the TGI is greater than 100 µM with SW-620 colon; greater than 100 µM in the experiment on SR leukemia; greater than 100 µM with TK-10 renal; greater than 100 µM in the experiment on OVCAR-5 ovarian; 35.9 µM in the experiment on SF-295 CNS; greater than 100 µM in the experiment with A549 NSCLC. Further, the TGI with HL-60(TB) leukemia, in the experiment with SK-MEL-28 melanoma and in the experiment on 786-0 renal was greater than 100 µM throughout. For the same compound, the GI50 is greater than 100 µM in the experiment with SR leukemia, greater than 100 µM in the experiment on OVCAR-5 ovarian, 5.57 µM with SF-295 CNS and greater than 100 µM with SK-MEL-28 melanoma.
As for `NC(=S)N/N=C1\CC(c2ccccc2)Nc2ccccc21` (stereo not drawn), the TGI with SW-620 colon was greater than 100 µM; in the experiment on TK-10 renal it was greater than 100 µM; in the experiment on SF-295 CNS, greater than 100 µM; with HOP-92 NSCLC, 57.5 µM; with HL-60(TB) leukemia, 31.3 µM; with SK-MEL-28 melanoma, greater than 100 µM.
`CC(=O)Oc1cc(/C=C/c2ccc(O)cc2)cc(OC(C)=O)c1`: the TGI is greater than 100 µM in the experiment on SW-620 colon; 48.7 µM with SR leukemia; greater than 100 µM in the experiment with KM12 colon; greater than 100 µM in the experiment on TK-10 renal; greater than 100 µM with OVCAR-5 ovarian; greater than 100 µM with SF-295 CNS. The TGI in the experiment with HOP-92 NSCLC, in the experiment with A549 NSCLC, with HL-60(TB) leukemia, in the experiment on SK-MEL-28 melanoma and in the experiment on 786-0 renal was greater than 100 µM throughout.
Regarding `COc1ccc(OC)c([N+](=O)[O-])c1-c1nc2sc(C)c(C)n2c1/C=N/N=C(N)N`, the TGI in the experiment on SW-620 colon is greater than 100 µM; in the experiment with SR leukemia, greater than 100 µM; in the experiment on KM12 colon, 50.9 µM; in the experiment with TK-10 renal, greater than 100 µM; with OVCAR-5 ovarian, greater than 100 µM; in the experiment on SF-295 CNS it was greater than 100 µM. Also, the TGI in the experiment with HOP-92 NSCLC is greater than 100 µM; with A549 NSCLC it was greater than 100 µM; in the experiment with HL-60(TB) leukemia, 64.9 µM; in the experiment on SK-MEL-28 melanoma, greater than 100 µM; in the experiment on 786-0 renal, greater than 100 µM.
As for `CC(=O)C(N=NC1CCC(S(=O)(=O)NB2N=CS2)CC1)C(=O)Nc1ccccc1C` (stereo not drawn), the TGI with SW-620 colon was 30 µM; with SR leukemia, greater than 100 µM; with KM12 colon, 30.1 µM; in the experiment with TK-10 renal it was 58.6 µM; with OVCAR-5 ovarian it was 39.3 µM; in the experiment with SF-295 CNS it was 35.1 µM. Besides, the TGI was 34.3 µM in the experiment on HOP-92 NSCLC, 28.6 µM with A549 NSCLC, greater than 100 µM with HL-60(TB) leukemia and 30.8 µM in the experiment on SK-MEL-28 melanoma.
Regarding `C[N+]1(C)C/C(=C\c2ccc(O)cc2)C(=O)/C(=C/c2ccc(O)cc2)C1`, the TGI in the experiment with SW-620 colon, with SR leukemia, in the experiment with KM12 colon, with TK-10 renal, with OVCAR-5 ovarian and with SF-295 CNS was greater than 100 µM each time. The TGI in the experiment on HOP-92 NSCLC, with A549 NSCLC, in the experiment with HL-60(TB) leukemia, in the experiment on SK-MEL-28 melanoma and in the experiment on 786-0 renal was greater than 100 µM in each case.
Regarding `N=C(N)SCCN1CCCCC1`, the TGI with SW-620 colon is greater than 100 µM; in the experiment on SR leukemia it was 60.1 µM; with KM12 colon, greater than 100 µM; in the experiment on TK-10 renal, greater than 100 µM; in the experiment on OVCAR-5 ovarian, greater than 100 µM; in the experiment on SF-295 CNS, greater than 100 µM. For the same compound, the TGI is greater than 100 µM in the experiment with HOP-92 NSCLC; greater than 100 µM with A549 NSCLC; 46.3 µM in the experiment on HL-60(TB) leukemia; 88.8 µM in the experiment with SK-MEL-28 melanoma; 51.5 µM in the experiment with 786-0 renal.
On to `Nc1ccc(S(=O)(=O)NCCS(=O)(=O)O)cc1`, for which the TGI in the experiment with SW-620 colon, in the experiment on SR leukemia, in the experiment with KM12 colon, in the experiment with TK-10 renal, in the experiment with OVCAR-5 ovarian and in the experiment with SF-295 CNS was greater than 100 µM each time. The TGI with HOP-92 NSCLC, with A549 NSCLC, in the experiment on HL-60(TB) leukemia, in the experiment with SK-MEL-28 melanoma and in the experiment on 786-0 renal was greater than 100 µM each time.
On to `C[N+]1(c2ccccc2)C=C(c2ccccc2)SC1=S` (stereo not drawn), for which the TGI in the experiment on SW-620 colon, in the experiment with SR leukemia, in the experiment on KM12 colon, in the experiment on TK-10 renal, in the experiment on OVCAR-5 ovarian and with SF-295 CNS was greater than 100 µM each time. In addition, the TGI with A549 NSCLC, with HL-60(TB) leukemia, in the experiment on SK-MEL-28 melanoma and in the experiment on 786-0 renal was greater than 100 µM in each case.
As for `Cc1cccc(/C=C2/C(=O)Nc3ccccc32)n1`, the TGI came out at 49.7 µM in the experiment with SW-620 colon; 7.3 µM in the experiment on SR leukemia; 35.4 µM in the experiment on KM12 colon; 33.7 µM in the experiment on TK-10 renal; 27 µM with OVCAR-5 ovarian; 54.4 µM in the experiment with SF-295 CNS. Moreover, the TGI with HOP-92 NSCLC was 31.3 µM; in the experiment with A549 NSCLC, greater than 85 µM; in the experiment with HL-60(TB) leukemia, 39.8 µM; with SK-MEL-28 melanoma it was greater than 100 µM; with 786-0 renal, 27.3 µM. Also, the GI50 with SR leukemia was 2.11 µM.
Consider `O=C1O/C(=C\C=C\CO)C=C1/C=C/CO`, for which the TGI is 45.9 µM with SW-620 colon; 71.4 µM in the experiment with SR leukemia; greater than 100 µM in the experiment with KM12 colon; 41 µM in the experiment with TK-10 renal; 41.7 µM in the experiment with OVCAR-5 ovarian; greater than 100 µM in the experiment on SF-295 CNS. Moreover, the TGI was greater than 100 µM with A549 NSCLC, 54.7 µM in the experiment with HL-60(TB) leukemia, 49.7 µM in the experiment on SK-MEL-28 melanoma and 33.7 µM in the experiment on 786-0 renal.
Turning to `Cc1ncc(COP(=O)(O)O)c(C)c1O`, the TGI in the experiment on SW-620 colon, in the experiment on SR leukemia, with KM12 colon, in the experiment with TK-10 renal, with OVCAR-5 ovarian and in the experiment on SF-295 CNS was greater than 100 µM in each case. Moreover, the TGI in the experiment on HOP-92 NSCLC, in the experiment on A549 NSCLC, in the experiment on HL-60(TB) leukemia, in the experiment on SK-MEL-28 melanoma and with 786-0 renal was greater than 100 µM throughout.
Consider `CCOc1ccc(N=Nc2ccc(-c3ccc(N=Nc4c(O)ccc5cc(S(=O)(=O)O)cc(S(=O)(=O)O)c45)cc3)cc2)cc1`, for which the TGI in the experiment on SW-620 colon, in the experiment with SR leukemia, in the experiment on KM12 colon, with TK-10 renal, in the experiment on OVCAR-5 ovarian and in the experiment with SF-295 CNS was greater than 100 µM each time. In addition, the TGI in the experiment with HOP-92 NSCLC, with A549 NSCLC, in the experiment with HL-60(TB) leukemia, in the experiment on SK-MEL-28 melanoma and in the experiment on 786-0 renal was greater than 100 µM in each case.
Take `CCCCCCCCc1ccc(CCC(N)(CO)CO)cc1`: the GI50 in the experiment with SW-620 colon is 1.64 µM; with SR leukemia, 1.39 µM; in the experiment on KM12 colon it was 1.93 µM; in the experiment with TK-10 renal it was 1.89 µM; with OVCAR-5 ovarian, 1.64 µM; in the experiment on SF-295 CNS, 1.98 µM. The GI50 with HOP-92 NSCLC is 1.39 µM; in the experiment with HL-60(TB) leukemia, 1.32 µM; in the experiment on SK-MEL-28 melanoma, 1.8 µM. In addition, the TGI with SW-620 colon turned out to be 3.08 µM; in the experiment on SR leukemia, 4.28 µM; in the experiment with KM12 colon it was 3.44 µM; in the experiment on TK-10 renal it was 3.58 µM; with OVCAR-5 ovarian, 3.08 µM; in the experiment on SF-295 CNS, 3.93 µM. In addition, the results for the TGI in the experiment with HOP-92 NSCLC, in the experiment on HL-60(TB) leukemia and in the experiment with SK-MEL-28 melanoma were 3.53 µM, 3.03 µM and 3.2 µM, respectively.
Take `C=C(C[C@@H](O)[C@H](C)NC(=O)OCc1ccccc1)C(=O)OC(C)(C)C`: the TGI with SW-620 colon, with SR leukemia, in the experiment with KM12 colon, in the experiment on TK-10 renal, in the experiment on OVCAR-5 ovarian and with SF-295 CNS was greater than 100 µM each time. The TGI in the experiment with HOP-92 NSCLC, in the experiment on A549 NSCLC, in the experiment with HL-60(TB) leukemia and in the experiment with SK-MEL-28 melanoma was greater than 100 µM throughout.
Consider `O=S(=O)([O-])[O-].[Fe+2].[OH2+]c1c(Cl)cc(Cl)cc1/C=N/Nc1ccccn1`, for which the TGI came to 3.49 µM in the experiment with SW-620 colon; 4.03 µM in the experiment with SR leukemia; 2.75 µM in the experiment with KM12 colon; 2.33 µM in the experiment on TK-10 renal; 5.97 µM in the experiment with OVCAR-5 ovarian; 3.45 µM with SF-295 CNS. Moreover, the TGI in the experiment on HOP-92 NSCLC came to 0.899 µM; in the experiment on A549 NSCLC, 4.14 µM; in the experiment with HL-60(TB) leukemia it was 2.92 µM; in the experiment on SK-MEL-28 melanoma it was 3.32 µM; with 786-0 renal it was 1.92 µM. Besides, the GI50 with TK-10 renal was 1.01 µM.

The values are drawn from PubChem BioAssay (NCI).
